Experimental data reported in ChEMBL document CHEMBL1131669, “Synthesis of dihydroxanthone derivatives and evaluation of their inhibitory activity against acetylcholinesterase: unique structural analogs of tacrine based on the BCD-ring of arisugacin” (Bioorg Med Chem Lett, 1999).
pIC50: −log10 of the molar value.

How the values were obtained:
Cholinesterase = Cholinesterase (Homo sapiens, UniProt P06276); test: In vitro inhibitory activity against Butyrylcholinesterase
[1] = In vitro inhibitory activity against acetylcholinesterase

Chain of Cholinesterase (P06276 whole entry): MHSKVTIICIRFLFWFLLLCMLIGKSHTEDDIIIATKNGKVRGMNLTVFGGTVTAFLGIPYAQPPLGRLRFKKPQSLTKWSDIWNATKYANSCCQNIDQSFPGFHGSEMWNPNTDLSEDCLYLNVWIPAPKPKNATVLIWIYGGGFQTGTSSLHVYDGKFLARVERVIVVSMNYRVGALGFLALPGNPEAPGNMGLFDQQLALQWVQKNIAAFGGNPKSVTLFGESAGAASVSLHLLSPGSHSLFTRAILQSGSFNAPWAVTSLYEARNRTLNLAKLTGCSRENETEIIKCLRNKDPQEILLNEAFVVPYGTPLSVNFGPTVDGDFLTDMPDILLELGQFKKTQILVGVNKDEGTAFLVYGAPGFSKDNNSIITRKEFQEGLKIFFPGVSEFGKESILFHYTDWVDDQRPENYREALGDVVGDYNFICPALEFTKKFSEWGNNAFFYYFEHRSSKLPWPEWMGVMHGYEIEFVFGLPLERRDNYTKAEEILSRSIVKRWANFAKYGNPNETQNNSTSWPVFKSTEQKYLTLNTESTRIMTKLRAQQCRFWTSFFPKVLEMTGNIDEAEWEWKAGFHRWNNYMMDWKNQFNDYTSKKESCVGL

SMILES	pIC50 (Cholinesterase)	pIC50 [1]
COC1C=CC[C@@H]2Oc3ccc(C)cc3C(=O)[C@]12C#N (stereo not given in full)	< 5.70	6.10
CO[C@@H]1C=CC[C@@H]2Oc3ccc(Br)cc3C(=O)[C@@]21C#N	6.14	5.85
COC1=CC2CCC1C1Oc3ccccc3C(=O)[C@]21C#N (stereo not given in full)	< 5.70	< 5.70
CO[C@@H]1C=CC[C@@H]2Oc3ccccc3C(=O)[C@@]21C#N	< 5.70	5.95
CO[C@@H]1C=CC[C@@H]2Oc3ccc(F)cc3C(=O)[C@@]21C#N	< 5.70	6.55
COC1C=C(O[Si](C)(C)C(C)(C)C)C[C@@H]2Oc3ccccc3C(=O)[C@]12C#N (stereo not given in full)	6.46	< 5.70
N#C[C@]12C(=O)c3ccccc3OC1C1C=CC2CC1 (stereo not given in full)	< 5.70	6.24
COc1ccc2c(c1)C(=O)[C@]1(C#N)C(OC)C=CC[C@@H]1O2 (stereo not given in full)	5.85	6.21
CO[C@@H]1C=CC[C@@H]2Oc3ccc(Cl)cc3C(=O)[C@@]21C#N	6.57	6.62
COC1CC(=O)C[C@@H]2Oc3ccccc3C(=O)[C@]12C#N (stereo not given in full)	< 5.70	6.49
